Laboratory results: PubChem BioAssay (NCI)
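1) Cells in 96-well plates. 2) Compound, 48 h, 5 concentrations. 3) Linear interpolation between surrounding doses. 4) Unreached endpoint = highest concentration. The concentration for full growth arrest is given as TGI.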

Experiments:
Experiment in all cases: NCI anticancer screen, dose series, 48 h
NCI-H460 lung = tested on: NCI-H460 lung
RPMI-8226 leukemia = tested on: RPMI-8226 leukemia
MDA-MB-435 = tested on: MDA-MB-435
CAKI-1 renal = tested on: CAKI-1 renal
SF-268 CNS = tested on: SF-268 CNS
SK-OV-3 ovarian = tested on: SK-OV-3 ovarian
KM12 colon = tested on: KM12 colon
HCC-2998 colon = tested on: HCC-2998 colon
NCI-H23 lung = tested on: NCI-H23 lung
OVCAR-5 ovarian = tested on: OVCAR-5 ovarian
BT-549 breast = tested on: BT-549 breast
MDA-N = tested on: MDA-N
SNB-19 CNS = tested on: SNB-19 CNS
SN12C renal = tested on: SN12C renal
T-47D breast = tested on: T-47D breast
CCRF-CEM leukemia = tested on: CCRF-CEM leukemia
COLO 205 colon = tested on: COLO 205 colon
M14 melanoma = tested on: M14 melanoma
ACHN renal = tested on: ACHN renal
EKVX NSCLC = tested on: EKVX NSCLC
MOLT-4 leukemia = tested on: MOLT-4 leukemia
A549 NSCLC = tested on: A549 NSCLC
SF-295 CNS = tested on: SF-295 CNS
MDA-MB-231 breast = tested on: MDA-MB-231 breast
SNB-75 CNS = tested on: SNB-75 CNS
MALME-3M melanoma = tested on: MALME-3M melanoma
HOP-92 NSCLC = tested on: HOP-92 NSCLC
HCT-15 colon = tested on: HCT-15 colon
HS 578T breast = tested on: HS 578T breast
UO-31 renal = tested on: UO-31 renal
HL-60(TB) leukemia = tested on: HL-60(TB) leukemia
A498 renal = tested on: A498 renal
NCI/ADR-RES ovarian = tested on: NCI/ADR-RES ovarian
K-562 leukemia = tested on: K-562 leukemia
OVCAR-4 ovarian = tested on: OVCAR-4 ovarian
HT29 colon = tested on: HT29 colon
IGROV1 ovarian = tested on: IGROV1 ovarian
TK-10 renal = tested on: TK-10 renal
MCF7 breast = tested on: MCF7 breast
786-0 renal = tested on: 786-0 renal
DU-145 prostate = tested on: DU-145 prostate
OVCAR-3 ovarian = tested on: OVCAR-3 ovarian
OVCAR-8 ovarian = tested on: OVCAR-8 ovarian
UACC-257 melanoma = tested on: UACC-257 melanoma
SK-MEL-2 melanoma = tested on: SK-MEL-2 melanoma
RXF 393 renal = tested on: RXF 393 renal
LOX IMVI melanoma = tested on: LOX IMVI melanoma
NCI-H522 lung = tested on: NCI-H522 lung
U251 CNS = tested on: U251 CNS
HOP-62 NSCLC = tested on: HOP-62 NSCLC
SK-MEL-5 melanoma = tested on: SK-MEL-5 melanoma
HCT-116 colon = tested on: HCT-116 colon
SF-539 CNS = tested on: SF-539 CNS
SR leukemia = tested on: SR leukemia
UACC-62 melanoma = tested on: UACC-62 melanoma
SW-620 colon = tested on: SW-620 colon
NCI-H226 lung = tested on: NCI-H226 lung
SK-MEL-28 melanoma = tested on: SK-MEL-28 melanoma
PC-3 prostate = tested on: PC-3 prostate

## NCCCN(CCCCN(CCCN)Cc1ccc2ccccc2c1)Cc1ccc2ccccc2c1
NCI-H460 lung
  TGI: 3.43 µM
RPMI-8226 leukemia
  TGI: 6.88 µM
MDA-MB-435
  TGI: 4.27 µM
CAKI-1 renal
  TGI: 3.15 µM
SF-268 CNS
  TGI: 2.57 µM
SK-OV-3 ovarian
  TGI: 3.39 µM
KM12 colon
  TGI: 3.32 µM
HCC-2998 colon
  TGI: 9.37 µM
NCI-H23 lung
  TGI: 3.34 µM
OVCAR-5 ovarian
  TGI: 3.44 µM
BT-549 breast
  TGI: 3.89 µM
MDA-N
  TGI: 3.3 µM
SNB-19 CNS
  TGI: 2.86 µM
SN12C renal
  TGI: 3.08 µM
T-47D breast
  TGI: 5.03 µM
CCRF-CEM leukemia
  TGI: > 100 µM
COLO 205 colon
  TGI: 5.22 µM
M14 melanoma
  TGI: 3.63 µM
ACHN renal
  TGI: 3.3 µM
EKVX NSCLC
  TGI: 3.37 µM
MOLT-4 leukemia
  TGI: 4.74 µM
A549 NSCLC
  TGI: 3.2 µM
SF-295 CNS
  TGI: 3.7 µM
MDA-MB-231 breast
  TGI: 11.8 µM
SNB-75 CNS
  TGI: 3.89 µM
MALME-3M melanoma
  TGI: 3.39 µM
HOP-92 NSCLC
  TGI: 5.75 µM
HCT-15 colon
  TGI: 13.1 µM
HS 578T breast
  TGI: 3.06 µM
UO-31 renal
  TGI: 6.1 µM
HL-60(TB) leukemia
  TGI: > 100 µM
A498 renal
  TGI: 5.06 µM
NCI/ADR-RES ovarian
  TGI: 54.3 µM
K-562 leukemia
  TGI: > 100 µM
OVCAR-4 ovarian
  TGI: 4.09 µM
HT29 colon
  TGI: 3.11 µM
IGROV1 ovarian
  TGI: 3.3 µM
TK-10 renal
  TGI: 5.05 µM

## O=C(O[C@H]1[C@@H](O)[C@H](n2cnc3c(Cl)ncnc32)O[C@@H]1COC(c1ccccc1)(c1ccccc1)c1ccccc1)c1ccccc1
MCF7 breast
  TGI: 23.4 µM
NCI-H460 lung
  TGI: 64.9 µM
786-0 renal
  TGI: 58.1 µM
RPMI-8226 leukemia
  TGI: 5.39 µM
MDA-MB-435
  TGI: > 100 µM
DU-145 prostate
  TGI: 3.85 µM
CAKI-1 renal
  TGI: 10.1 µM
SF-268 CNS
  TGI: 61.3 µM
SK-OV-3 ovarian
  TGI: > 100 µM
KM12 colon
  TGI: 41.7 µM
HCC-2998 colon
  TGI: 41.9 µM
NCI-H23 lung
  TGI: > 100 µM
OVCAR-5 ovarian
  TGI: > 100 µM
BT-549 breast
  TGI: 97.7 µM
MDA-N
  TGI: > 100 µM
SNB-19 CNS
  TGI: > 100 µM
OVCAR-3 ovarian
  TGI: 35 µM
SN12C renal
  TGI: 30.6 µM
T-47D breast
  TGI: 24.9 µM
OVCAR-8 ovarian
  TGI: > 100 µM
CCRF-CEM leukemia
  TGI: > 100 µM
COLO 205 colon
  TGI: 29.3 µM
UACC-257 melanoma
  TGI: 41.5 µM
SK-MEL-2 melanoma
  TGI: 49.7 µM
M14 melanoma
  TGI: > 100 µM
ACHN renal
  TGI: 31 µM
EKVX NSCLC
  TGI: 32.3 µM
MOLT-4 leukemia
  TGI: 17.9 µM
RXF 393 renal
  TGI: 48.1 µM
LOX IMVI melanoma
  TGI: > 100 µM
NCI-H522 lung
  TGI: 91.5 µM
A549 NSCLC
  TGI: > 100 µM
U251 CNS
  TGI: 59.2 µM
SF-295 CNS
  TGI: 53.9 µM
MDA-MB-231 breast
  TGI: 51.1 µM
SNB-75 CNS
  TGI: > 100 µM
HOP-92 NSCLC
  TGI: 44.8 µM
HCT-15 colon
  TGI: > 100 µM
HS 578T breast
  TGI: 8.78 µM
HOP-62 NSCLC
  TGI: 51.7 µM
UO-31 renal
  TGI: 2.73 µM
SK-MEL-5 melanoma
  TGI: 31.8 µM
HL-60(TB) leukemia
  TGI: 40.7 µM
A498 renal
  TGI: 31 µM
NCI/ADR-RES ovarian
  TGI: > 100 µM
K-562 leukemia
  TGI: > 100 µM
OVCAR-4 ovarian
  TGI: > 100 µM
HCT-116 colon
  TGI: > 100 µM
HT29 colon
  TGI: 62.1 µM
SF-539 CNS
  TGI: 47.3 µM
IGROV1 ovarian
  TGI: > 100 µM
SR leukemia
  TGI: 18.6 µM
UACC-62 melanoma
  TGI: > 100 µM
SW-620 colon
  TGI: > 100 µM
NCI-H226 lung
  TGI: > 100 µM
TK-10 renal
  TGI: > 100 µM
SK-MEL-28 melanoma
  TGI: > 100 µM
PC-3 prostate
  TGI: 24.5 µM
